US8334236B2, “Ring-fused 2-pyridone derivatives and herbicides” (Kumiai Chemical Industry Co., Ltd., priority 2009, dated 2012)

Experiments:
[1] = test system: Setaria viridis; assay: Test Example 3: herbicidal effects in farmland foliar treatment; assay type: in vivo; parameters: scale not given here; conditions: 1000 g active ingredient per hectare, 14th day after treatment
[2] = test system: Monochoria vaginalis (Burm. f.) Presl var. plantaginea (Roxb.) Solms-Laub.; assay: Test Example 1: herbicidal effects in paddy field soil treatment; assay type: in vivo; parameters: scale not given here; conditions: 1000 g active ingredient per hectare, 21st day after treatment
Procedure: (§1) 100-cm^2 plastic pots were filled with paddy field soil. After puddling and leveling, seeds of Echinochloa oryzicola Vasing, Monochoria vaginalis (Burm. f.) Presl var. plantaginea (Roxb.) Solms-Laub., and Scirpus juncoides Roxb. var. ohwianus. T. Koyama were sowed in the pots, and the soil was waterlogged to a water depth of 3 cm. On the next day, a wettable powder formulation prepared according to Formulation Example 1 was diluted with water, and the dilution was added dropwise onto the water surface. The amount of application was an amount equivalent to 1000 g of the active ingredient per hectare. Thereafter, the plants were grown in a greenhouse, and on the 21st day after the treatment, the herbicidal effects were investigated according to the criteria described in Table 71.
(§2) In addition, comparative compound A, comparative compound B, comparative compound C, and comparative compound D in the tables represent Compound Nos. 70, 34, 32, and 31, respectively, as described in EP-283261. The structural formulas of these compounds are presented below.

[3] = test system: Echinochloa oryzicola Vasing; assay: as above; assay type: in vivo; parameters: scale not given here; conditions: 1000 g active ingredient per hectare, 21st day after treatment
Procedure: as §1, §2

[4] = test system: Scirpus juncoides Roxb. var. ohwianus. T. Koyama; assay: as above; assay type: in vivo; parameters: scale not given here; conditions: 1000 g active ingredient per hectare, 21st day after treatment
Procedure: as §1, §2

[5] = test system: Setaria viridis; assay: Test Example 2: herbicidal effects in farmland soil treatment; assay type: in vivo; parameters: scale not given here; conditions: 1000 g active ingredient per hectare, 21st day after treatment
[6] = test system: Amaranthus retroflexus; assay: Test Example 3: herbicidal effects in farmland foliar treatment; assay type: in vivo; parameters: scale not given here; conditions: 1000 g active ingredient per hectare, 14th day after treatment
Procedure: (§3) 80-cm^2 plastic pots were filled with farmland soil. Seeds of Echinochloa crus-galli (L.) P. Beauv. var. crus-galli, Abutilon theophrasti medicus, and Amaranthus retroflexus were sowed in the pots, and the plants were grown for two weeks in a greenhouse. A wettable powder formulation prepared according to Formulation Example 1 was diluted with water, and the dilution was applied by foliar treatment by spraying with a small sprayer over the whole plant from the upper part, in an amount equivalent to 1000 liters per hectare, such that 1000 g of the active ingredient was applied per hectare. Thereafter, the plants were grown in a greenhouse, and on the 14th day after the treatment, the herbicidal effects were investigated according to the criteria described in Table 71 shown above.

[7] = test system: Echinochloa crus-galli (L.) P. Beauv. var. crus-galli; assay: as above; assay type: in vivo; parameters: scale not given here; conditions: 1000 g active ingredient per hectare, 14th day after treatment
Procedure: as §3

[8] = test system: Abutilon theophrasti medicus; assay: as above; assay type: in vivo; parameters: scale not given here; conditions: 1000 g active ingredient per hectare, 14th day after treatment
Procedure: as §3

[9] = test system: Amaranthus retroflexus; assay: Test Example 2: herbicidal effects in farmland soil treatment; assay type: in vivo; parameters: scale not given here; conditions: 1000 g active ingredient per hectare, 21st day after treatment
Procedure: as §3, with “of” for “of Echinochloa crus-galli (L.) P. Beauv. var. crus-galli,”, “medicus” for “medicus,”, “soil was covered.” for “the plants were grown for two weeks in a greenhouse.”, “uniformly sprayed on the soil surface” for “applied by foliar treatment by spraying”, “sprayer,” for “sprayer over the whole plant from the upper part,”, “21st” for “14th”

[10] = test system: Abutilon theophrasti medicus; assay: as above; assay type: in vivo; parameters: scale not given here; conditions: 1000 g active ingredient per hectare, 21st day after treatment
Procedure: as §3, with “of” for “of Echinochloa crus-galli (L.) P. Beauv. var. crus-galli,”, “medicus” for “medicus,”, “soil was covered.” for “the plants were grown for two weeks in a greenhouse.”, “uniformly sprayed on the soil surface” for “applied by foliar treatment by spraying”, “sprayer,” for “sprayer over the whole plant from the upper part,”, “21st” for “14th”

[11] = test system: Echinochloa crus-galli; assay: as above; assay type: in vivo; parameters: scale not given here; conditions: 1000 g active ingredient per hectare, 21st day after treatment

melting point [°C] | Compound | Herbicidal effect index, Setaria viridis [1] | Herbicidal effect index, Monochoria vaginalis [2] | Herbicidal effect index, Echinochloa oryzicola [3] | Herbicidal effect index, Scirpus juncoides [4] | Herbicidal effect index, Setaria viridis [5] | Herbicidal effect index, Amaranthus retroflexus [6] | Herbicidal effect index, Echinochloa crus-galli [7] | Herbicidal effect index, Abutilon theoprasti [8] | Herbicidal effect index, Amaranthus retroflexus [9] | Herbicidal effect index, Abutilon thophrasti [10] | Herbicidal effect index, Echinochloa crus-galli [11]
151 to 153 | Cn1c(=O)c(C(=O)C2=C(O)CCCC2=O)cc2cccnc21 [II-2, 3-(2-hydroxy-6-oxo-1-cyclohexenecarbonyl)-1-methyl-1,8-naphthyridin-2(1H)-one] | 4 | 5 | 5 | 5 | 5 | 5 | 5 | 5 | 5 | 5 | 5
108 to 110 | CCSCn1c(=O)c(C(=O)C2=C(O)CCCC2=O)cc2cccnc21 [II-19, 1-(ethylthiomethyl)-3-(2-hydroxy-6-oxo-1-cyclohexenecarbonyl)-1,8-naphthyridin-2(1H)-one] | 5 | 5 | 5 | 5 | 4 | 5 | 5 | 5 | 5 | 5 | 4
212 to 214 | O=C1CCCC(O)=C1C(=O)c1cc2cccnc2n(-c2ccccc2)c1=O [II-41, 3-(2-hydroxy-6-oxo-1-cyclohexenecarbonyl)-1-phenyl-1,8-naphthyridin-2(1H)-one] | 5 | 5 | 5 | 5 | 5 | 5 | 5 | 5 | 5 | 5 | 5
113 to 116 | Cc1cc(-n2c(=O)c(C(=O)C3=C(O)CCCC3=O)cc3cccnc32)no1 [II-63, 3-(2-hydroxy-6-oxo-1-cyclohexenecarbonyl)-1-(5-methyl-3-isoxazolyl)-1,8-naphthyridin-2(1H)-one] | 5 | 5 | 5 | 5 | 3 | 5 | 5 | 5 | 5 | 5 | 4
220 to 222 | COc1ccc(-n2c(=O)c(C(=O)C3=C(O)CCCC3=O)cc3cccnc32)cn1 [II-92, 3-(2-hydroxy-6-oxo-1-cyclohexenecarbonyl)-1-(6-methoxy-3-pyridinyl)-1,8-naphthyridin-2(1H)-one] | 5 | 5 | 5 | 5 | 4 | 5 | 5 | 5 | 5 | 5 | 5
